The results in this text go back to publication PMC6282036, “Dual-Specificity Phosphatase CDC25B Was Inhibited by Natural Product HB-21 Through Covalently Binding to the Active Site” (Frontiers in Chemistry, 2018).

In experiment [1] the target is T1, Cdc25B (Homo sapiens, UniProt P30305).
T1 construct: Cdc25B catalytic domain (372–551)
T1 sequence (P30305 386-565): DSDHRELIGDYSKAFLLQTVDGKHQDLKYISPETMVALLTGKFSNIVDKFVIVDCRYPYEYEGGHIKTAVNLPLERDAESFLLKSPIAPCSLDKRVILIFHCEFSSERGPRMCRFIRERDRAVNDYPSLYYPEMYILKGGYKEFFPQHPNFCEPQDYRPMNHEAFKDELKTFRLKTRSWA
The experiment in a line: intact protein ESI-Q-TOF MS of covalent adducts; IC50 from OMFP fluorometric assay with recombinant Cdc25B. The format is biochemical.

Experiment [2] addresses T2, Cdc25B (Homo sapiens, UniProt P30305).
T2 construct: recombinant human Cdc25B
T2 sequence (P30305 1-580): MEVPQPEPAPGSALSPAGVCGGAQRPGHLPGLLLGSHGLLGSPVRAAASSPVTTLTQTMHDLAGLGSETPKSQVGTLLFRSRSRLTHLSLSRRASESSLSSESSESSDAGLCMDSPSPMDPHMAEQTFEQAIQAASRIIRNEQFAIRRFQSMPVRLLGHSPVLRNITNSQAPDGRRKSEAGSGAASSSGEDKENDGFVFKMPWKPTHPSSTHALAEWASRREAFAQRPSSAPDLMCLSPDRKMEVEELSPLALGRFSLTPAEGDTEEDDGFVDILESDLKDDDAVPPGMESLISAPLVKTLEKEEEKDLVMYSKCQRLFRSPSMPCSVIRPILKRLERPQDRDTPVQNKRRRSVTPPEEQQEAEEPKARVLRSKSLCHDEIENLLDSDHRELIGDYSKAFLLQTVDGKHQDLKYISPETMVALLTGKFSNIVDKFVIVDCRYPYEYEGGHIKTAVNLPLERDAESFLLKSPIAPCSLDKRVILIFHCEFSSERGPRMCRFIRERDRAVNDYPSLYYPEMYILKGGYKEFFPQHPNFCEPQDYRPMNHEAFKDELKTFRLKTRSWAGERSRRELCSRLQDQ
The experiment in a line: OMFP fluorometric phosphatase assay (CycLex Cdc25B kit), positive control. In kind it is biochemical.

What is called IC50 is the concentration that gives 50% inhibition. In the case of `C=C1C(=O)O[C@@H]2C[C@H](C)C(CCC(C)=O)=C[C@H](O)[C@H]12` [HB-21], on Cdc25B [1], the IC50 is 24.8 ± 1.63 µM.
As to `CNC1=CC(=O)c2ccncc2C1=O` [Caulibugulone A], the IC50 on Cdc25B [2] is 5.37 ± 0.45 µM.
